Reference: ChEMBL document CHEMBL1949531, “Synthesis and antiviral activities of novel gossypol derivatives” (Bioorg Med Chem Lett, 2012)
Active and inactive are the calls of the source. The rule behind the calls is not given here.

Assays:
Albumin = Albumin (Homo sapiens, UniProt P02768); assay: Binding affinity to human serum albumin by fluorescence quenching assay; assay type: ADME; details: isolated protein
[1] = system: Human immunodeficiency virus 1; assay: Antiviral activity against HIV1 3B infected human TZM-bl cells assessed as inhibition of viral replication by luciferase reporter assay; assay type: functional, organism-based
[2] = Selectivity index, ratio of CC50 for MDCK cells to IC50 for Influenza A virus (A/Vietnam/1194/2004(H5N1)); assay type: functional
[3] = Selectivity index, ratio of CC50 for human TZM-bl cells to IC50 for HIV1 3B; assay type: functional
[4] = Cytotoxicity in human TZM-bl cells by MTT assay; assay type: cell-based
[5] = Cytotoxicity against MDCK cells by MTT assay; assay type: cell-based, Canis lupus familiaris; details: dog
Influenza A virus = assay: Antiviral activity against Influenza A virus (A/Vietnam/1194/2004(H5N1)) infected in MDCK cells assessed as inhibition of viral replication by plaque reduction assay; assay type: functional, organism-based
[6] = system: Human immunodeficiency virus 1; assay: Antiviral activity against HIV1 3B infected human TZM-bl cells assessed as inhibition of viral replication at 10 uM treated immediately after infection by luciferase reporter assay; assay type: functional, organism-based
[7] = system: Human immunodeficiency virus 1; assay: Antiviral activity against HIV1 3B infected human TZM-bl cells assessed as inhibition of viral replication at 10 uM treated 2 hrs after viral infection by luciferase reporter assay; assay type: functional, organism-based
[8] = Human immunodeficiency virus 1, 3B, TZM-bl, read-out: IC50

Sequence of Albumin (P02768 whole entry): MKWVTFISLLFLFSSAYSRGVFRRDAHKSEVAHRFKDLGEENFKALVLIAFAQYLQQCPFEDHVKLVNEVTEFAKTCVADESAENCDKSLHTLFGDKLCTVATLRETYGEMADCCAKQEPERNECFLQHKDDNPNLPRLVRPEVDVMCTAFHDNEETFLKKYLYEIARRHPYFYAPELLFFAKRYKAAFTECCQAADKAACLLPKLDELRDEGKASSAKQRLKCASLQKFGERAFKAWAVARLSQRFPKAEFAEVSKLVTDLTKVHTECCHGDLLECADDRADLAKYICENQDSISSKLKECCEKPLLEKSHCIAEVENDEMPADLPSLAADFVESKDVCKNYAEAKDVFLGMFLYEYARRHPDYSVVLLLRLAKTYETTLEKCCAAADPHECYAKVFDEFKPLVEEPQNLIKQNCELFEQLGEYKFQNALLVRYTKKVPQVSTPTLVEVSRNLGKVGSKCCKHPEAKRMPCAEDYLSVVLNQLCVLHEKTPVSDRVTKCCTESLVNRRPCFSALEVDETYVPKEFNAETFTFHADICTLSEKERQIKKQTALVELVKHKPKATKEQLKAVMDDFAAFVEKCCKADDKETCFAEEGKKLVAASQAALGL

Molecule | Ka (Albumin) | IC50 [1, 8] | Ratio CC50/IC50 [2] | Ratio CC50/IC50 [3] | CC50 [4] | CC50 [5] | IC50 (Influenza A virus) | IC50 ([1]; tzm-bl) | inhibition [6] | inhibition [7]
Cc1cc2c(c(O)c1-c1c(C)cc3c(c1O)/C(=C/NCCCCCCCC(=O)[O-])C(=O)C(O)=C3C(C)C)/C(=C/NCCCCCCCC(=O)[O-])C(=O)C(O)=C2C(C)C.[Na+].[Na+] | 2.8629 ×10⁴ L/mol | 2.84 µM | >1 | 10.44 | 29.6 µM | > 39.5 µM | 39.5 µM |  |  | 
Cc1cc2c(c(O)c1-c1c(C)cc3c(c1O)/C(=C/NCCS(=O)(=O)[O-])C(=O)C(O)=C3C(C)C)/C(=C/NCCS(=O)(=O)[O-])C(=O)C(O)=C2C(C)C.[Na+].[Na+] [MEGOSIN] | 1.7559 ×10⁴ L/mol | 1.24 µM | >5 | 43.03 | 53.4 µM | > 43 µM | 8.59 µM |  |  | 
Cc1cc2c(c(O)c1-c1c(C)cc3c(c1O)/C(=C/NCCCCC(=O)[O-])C(=O)C(O)=C3C(C)C)/C(=C/NCCCCC(=O)[O-])C(=O)C(O)=C2C(C)C.[Na+].[Na+] | 2.4288 ×10⁴ L/mol | 1.71 µM | >2.25 | 19.25 | 32.9 µM | > 43.8 µM | 19.5 µM |  |  | 
COC(=O)C(N/C=C1\C(=O)C(O)=C(C(C)C)c2cc(C)c(-c3c(C)cc4c(c3O)/C(=C/NC(C(=O)OC)c3ccccc3)C(=O)C(O)=C4C(C)C)c(O)c21)c1ccccc1 (stereo unspecified) | 4.2658 ×10⁴ L/mol |  | >5 |  | 31.5 µM | > 41.1 µM | 8.21 µM | Not Active |  | 
Cc1cc2c(c(O)c1-c1c(C)cc3c(c1O)/C(=C/N[C@H](C(=O)[O-])c1ccccc1)C(=O)C(O)=C3C(C)C)/C(=C/N[C@H](C(=O)[O-])c1ccccc1)C(=O)C(O)=C2C(C)C.[Na+].[Na+] | 1.4015 ×10⁴ L/mol | 1.45 µM | >5 | 20.64 | 29.9 µM | > 40.3 µM | 8.06 µM |  |  | 
Cc1cc2c(c(O)c1-c1c(C)cc3c(c1O)/C(=C/N[C@@H](CC(C)C)C(=O)[O-])C(=O)C(O)=C3C(C)C)/C(=C/N[C@@H](CC(C)C)C(=O)[O-])C(=O)C(O)=C2C(C)C.[Na+].[Na+] | 1.3483 ×10⁴ L/mol | 1.37 µM | >5.6 | 31.26 | 42.8 µM | > 47.4 µM | 8.46 µM |  |  | 
Cc1cc2c(c(O)c1-c1c(C)cc3c(c1O)/C(=C/NCC(=O)[O-])C(=O)C(O)=C3C(C)C)/C(=C/NCC(=O)[O-])C(=O)C(O)=C2C(C)C.[Na+].[Na+] | 1.2462 ×10⁴ L/mol |  | >5 |  |  | > 49.3 µM | 9.87 µM |  |  | 
COC(=O)[C@H](Cc1c[nH]c2ccccc12)N/C=C1\C(=O)C(O)=C(C(C)C)c2cc(C)c(-c3c(C)cc4c(c3O)/C(=C/N[C@@H](Cc3c[nH]c5ccccc35)C(=O)OC)C(=O)C(O)=C4C(C)C)c(O)c21 | 2.262 ×10³ L/mol |  | >5 |  | 22 µM | > 36.3 µM | 7.26 µM | Not Active |  | 
COC(=O)[C@H](C)N/C=C1\C(=O)C(O)=C(C(C)C)c2cc(C)c(-c3c(C)cc4c(c3O)/C(=C/N[C@@H](C)C(=O)OC)C(=O)C(O)=C4C(C)C)c(O)c21 | 1.0413 ×10⁴ L/mol |  | >41.77 |  | 25.6 µM | > 48.5 µM | 1.16 µM | Not Active |  | 
COC(=O)[C@H](CC(C)C)N/C=C1\C(=O)C(O)=C(C(C)C)c2cc(C)c(-c3c(C)cc4c(c3O)/C(=C/N[C@@H](CC(C)C)C(=O)OC)C(=O)C(O)=C4C(C)C)c(O)c21 | 7.1236 ×10³ L/mol |  | >5 |  | 33.6 µM | > 42.8 µM | 8.63 µM | Not Active |  | 
Cc1cc2c(c(O)c1-c1c(C)cc3c(c1O)/C(=C/NCCCCCC(=O)[O-])C(=O)C(O)=C3C(C)C)/C(=C/NCCCCCC(=O)[O-])C(=O)C(O)=C2C(C)C.[Na+].[Na+] | 3.2203 ×10⁴ L/mol | 2.09 µM | >1 | 15.19 | 31.8 µM | > 42.3 µM | 42.3 µM |  |  | 
Cc1cc2c(c(O)c1-c1c(C)cc3c(c1O)/C(=C/N[C@@H](C)C(=O)[O-])C(=O)C(O)=C3C(C)C)/C(=C/N[C@@H](C)C(=O)[O-])C(=O)C(O)=C2C(C)C.[Na+].[Na+] | 1.0392 ×10⁵ L/mol | 1.22 µM | >54.41 | 46.09 | 56.2 µM | > 47.3 µM | 0.87 µM |  | Active | inactive
enfuvirtide |  | 0.0988 µM |  |  |  |  |  |  | Active | inactive
Cc1cc2c(c(O)c1-c1c(C)cc3c(c1O)/C(=C/NC(C)(C)C(=O)[O-])C(=O)C(O)=C3C(C)C)/C(=C/NC(C)(C)C(=O)[O-])C(=O)C(O)=C2C(C)C.[Na+].[Na+] | 1.9125 ×10⁵ L/mol | 1.39 µM | >43.37 | 71.19 | 99 µM | > 45.5 µM | 1.05 µM |  | Active | inactive
Cc1cc2c(c(O)c1-c1c(C)cc3c(c1O)/C(=C/NC(C(=O)[O-])c1ccc(Cl)cc1)C(=O)C(O)=C3C(C)C)/C(=C/NC(C(=O)[O-])c1ccc(Cl)cc1)C(=O)C(O)=C2C(C)C.[Na+].[Na+] (stereo unspecified) | 1.2868 ×10⁴ L/mol | 1.28 µM | >1.73 | 17.12 | 21.9 µM | > 37.2 µM | 21.5 µM |  |  | 
Cc1cc2c(c(O)c1-c1c(C)cc3c(c1O)/C(=C/N[C@@H](Cc1ccc(O)cc1)C(=O)[O-])C(=O)C(O)=C3C(C)C)/C(=C/N[C@@H](Cc1ccc(O)cc1)C(=O)[O-])C(=O)C(O)=C2C(C)C.[Na+].[Na+] | 7.5353 ×10⁴ L/mol | 1.62 µM | >1 | 33.81 | 54.8 µM | > 37.5 µM | 37.5 µM |  |  | 
NC12CC3CC(CC(C3)C1)C2 [AMANTADINE] |  |  | >92.59 |  |  | > 220 µM | 2.38 µM |  |  | 
Cc1cc2c(c(O)c1-c1c(C)cc3c(c1O)/C(=C/N[C@@H](CO)C(=O)[O-])C(=O)C(O)=C3C(C)C)/C(=C/N[C@@H](CO)C(=O)[O-])C(=O)C(O)=C2C(C)C.[Na+].[Na+] | 5.7756 ×10⁴ L/mol | 2.88 µM | >1 | 23.72 | 68.3 µM | > 45.3 µM | 45.3 µM |  |  | 
Cc1cc2c(c(O)c1-c1c(C)cc3c(c1O)/C(=C/N[C@H](C(=O)[O-])C(C)C)C(=O)C(O)=C3C(C)C)/C(=C/N[C@H](C(=O)[O-])C(C)C)C(=O)C(O)=C2C(C)C.[Na+].[Na+] | 2.114 ×10⁵ L/mol | 1.14 µM | >24.64 | 61.68 | 70.3 µM | > 43.9 µM | 1.78 µM |  | Active | inactive
Cc1cc2c(C(C)C)c(O)c(O)c(/C=N/[C@@H](Cc3ccccc3)C(=O)[O-])c2c(O)c1-c1c(C)cc2c(C(C)C)c(O)c(O)c(/C=N/[C@@H](Cc3ccccc3)C(=O)[O-])c2c1O.[Na+].[Na+] | 1.2835 ×10⁵ L/mol | 1.77 µM | >5 | 32.27 | 57.1 µM | > 38.9 µM | 7.79 µM |  |  | 
CCOC(=O)CN/C=C1\C(=O)C(O)=C(C(C)C)c2cc(C)c(-c3c(C)cc4c(c3O)/C(=C/NCC(=O)OCC)C(=O)C(O)=C4C(C)C)c(O)c21 | 1.9028 ×10² L/mol |  | >5 |  | 25.7 µM | > 48.5 µM | 9.69 µM | Not Active |  | 
Cc1cc2c(c(O)c1-c1c(C)cc3c(c1O)/C(=C/N[C@@H](CS)C(=O)[O-])C(=O)C(O)=C3C(C)C)/C(=C/N[C@@H](CS)C(=O)[O-])C(=O)C(O)=C2C(C)C.[Na+].[Na+] | 8.2016 ×10³ L/mol | 3.73 µM | >1 | 4.42 | 16.5 µM | > 43.4 µM | 43.4 µM |  |  | 
Cc1cc2c(c(O)c1-c1c(C)cc3c(c1O)/C(=C/NC(C(=O)[O-])c1ccc(O)cc1)C(=O)C(O)=C3C(C)C)/C(=C/NC(C(=O)[O-])c1ccc(O)cc1)C(=O)C(O)=C2C(C)C.[Na+].[Na+] (stereo unspecified) | 2.1607 ×10⁴ L/mol | 1.34 µM | >5 | 16.54 | 22.2 µM | > 38.8 µM | 7.76 µM |  |  | 
Cc1cc2c(c(O)c1-c1c(C)cc3c(c1O)/C(=C/N[C@@H](Cc1c[nH]cn1)C(=O)[O-])C(=O)C(O)=C3C(C)C)/C(=C/N[C@@H](Cc1c[nH]cn1)C(=O)[O-])C(=O)C(O)=C2C(C)C.[Na+].[Na+] | 6.7205 ×10⁴ L/mol | 1.58 µM | >1 | 32.38 | 51.2 µM | > 41.2 µM | 41.2 µM |  |  | 
CC(=O)N[C@H]1[C@H]([C@H](O)[C@H](O)CO)OC(C(=O)O)=C[C@@H]1NC(=N)N [ZANAMIVIR] |  |  | >836 |  |  | > 100 µM | 0.12 µM |  |  | 
